Assay results: patent US9522908B2, “Ezrin inhibitors and methods of making and using” (Georgetown University, priority 2010, dated 2016)

Experiments:
[1] = test system: GFP expressing K7M2 OS cells; experiment: Pulmonary metastasis assay (PuMA), lung organ culture; parameters: species or system mice; conditions: 10 μM
Description: FIG. 5 illustrates NSC305787 and NSC668394 inhibit OS metastatic growth in lung organ culture. GFP expressing K7M2 OS cells (2×10^5) were injected to tail vein of female BALB/c mice. Within 15 min of tumor cells injection, mice were euthanized and lungs were injected with a mixed agarose/medium solution and then were removed. Complete transverse sections (1-2 mm in thickness) were made from each lobe and 4-5 lung sections were placed on a single 1.5×0.7 cm sterile Gelfoam section. Lung sections were incubated at 37° C. in humidified conditions of 5% CO2. Fresh medium or small molecules (10 μM) were replaced every other day. (A) Quantitation of the fluorescence signal from NSC305787 (10 μM) and NSC668394 (10 μM) treated organ cultures over time. Metastatic burden was quantified by measuring the fluorescent area of metastatic cells in each lung section at each time point and was expressed as mean fluorescent area (mean fluorescent area of each lung section over 4 lung sections). Mean fluorescent area was normalized to 100 pixels for day 0 to allow quantitative evaluation of metastatic progression over time. Data are represented as mean .s.d. from three independent experiments. (B) Fluorescence pictures of a representative culture treated with 10 μM NSC305787 and 10 μM NSC668394 are given on the right panel. […]

zebrafish embryos = experiment: Zebrafish embryo development assay; type: in vivo, Zebrafish (Danio rerio)
Description: Animals. Zebrafish (Danio rerio) were raised, maintained and crossed as described before (Westerfield, M. University of Oregon Press, Eugene. Or., 1993). Development of embryos was studied at 28° C. and staging was determined by morphological characteristics (Kimmel, C. B., et al., Dev. Dyn. 203, 253-310 (1995)).
A translation blocking anti-ezrin morpholino oligonucleotide (MO), described and validated by Link et al. (Link, V., et al., J. Cell Sci., 119, 2073-2083 (2006)), MO1, 5′-[…] (SEQ ID NO:1), was synthesized by Gene-Tools, LCC (Philomath, Oreg.). MOs were microinjected into one to four cell stage embryos.
Zebrafish embryos were arrayed, three per well, in 96-well plates. Compounds were added at 1-33 μM concentrations. Embryos were observed, and photographed, at 70% epiboly, 24-28 hours post fertilization (hpf) and 48 hpf.

[2] = target: T1, recombinant WT ezrin protein (Mus musculus, UniProt P26040); experiment: SPR direct binding to immobilized recombinant WT ezrin (Biacore); conditions: 5 independent experiments
T1 construct: full-length recombinant ezrin protein was expressed in bacteria; made in house; host or cells: E. coli M15pREP4 (pQE16 vector)
Description: FIG. 7 provides results illustrating the functional activity of select compounds of the present invention on ezrin protein. The chemical structure of the embodied compounds is detailed and the corresponding binding and viability values are listed. The binding potential of select compounds to ezrin was analyzed by using SPR. Recombinant WT ezrin was immobilized onto a Biacore CM5 sensorchip and compounds were injected one-at-a-time at 6 different concentrations. SPR sensograms and KD values were determined using Biacore software. […] The viability and growth inhibition activity of select compounds were determined by treatment of high ezrin expressed K7M2 and low ezrin expressed K12 osteosarcoma cells with a dose range of the select compound for 24 hours. […]
Compounds for initial screening were acquired from 4 libraries (Challenge Set, Diversity Set, Mechanistic Set and Natural Product Set) of the Developmental Therapeutics Program, National Cancer Institute. Their direct ezrin binding potential was analyzed by using Biacore T100 v2.0.3 instrument (GE Healthcare, Piscataway N.J.). […] Existing interactions are measured based on total mass change on the chip surface. Recombinant WT ezrin protein was used as the ligand and immobilized on to a Biacore CM5 sensorchip and compounds were injected one at a time as the binding interactions were recorded. […]

[3] = test system: K7M2, K12 and HUVEC cells; experiment: Toxicity to cells at invasion assay concentrations; type: cell-based; conditions: 1 μM and 10 μM; data not shown
Description: Chemotaxis experiments were performed in 96 well Boyden chamber as described previously (Chen, K., et al., Pediatr. Blood Cancer, 51, 349-355 (2008)). To measure effect of compounds on cellular toxicity, WST viability assay (Roche, Indianapolis, Ind.) was performed in parallel to chemotaxis experiments.

T1 sequence (P26040 whole entry): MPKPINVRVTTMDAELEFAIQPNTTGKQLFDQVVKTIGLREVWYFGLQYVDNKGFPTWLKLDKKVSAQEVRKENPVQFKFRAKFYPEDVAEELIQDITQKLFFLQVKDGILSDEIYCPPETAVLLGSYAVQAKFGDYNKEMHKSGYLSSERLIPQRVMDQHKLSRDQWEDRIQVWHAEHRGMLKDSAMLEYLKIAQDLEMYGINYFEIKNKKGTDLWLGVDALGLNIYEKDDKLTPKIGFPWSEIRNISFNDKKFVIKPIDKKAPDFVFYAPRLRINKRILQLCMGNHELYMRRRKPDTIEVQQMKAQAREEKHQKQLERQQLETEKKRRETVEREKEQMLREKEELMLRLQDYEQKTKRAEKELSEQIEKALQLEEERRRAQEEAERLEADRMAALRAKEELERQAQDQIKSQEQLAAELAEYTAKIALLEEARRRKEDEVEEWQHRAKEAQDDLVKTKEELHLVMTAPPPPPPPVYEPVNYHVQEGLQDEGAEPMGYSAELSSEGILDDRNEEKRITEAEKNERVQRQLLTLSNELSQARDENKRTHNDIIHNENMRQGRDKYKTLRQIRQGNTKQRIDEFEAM

OC(c1cc(C23CC4CC(CC(C4)C2)C3)nc2c(Cl)cc(Cl)cc12)C1CCCCN1 (centres unmarked) [NSC305787]
lung metastasis of K7M2 cells in lung organ culture (GFP fluorescence) [1]: significantly inhibited | embryos with epiboly defects (zebrafish embryos; 10 μM): 15% | embryos with epiboly defects (zebrafish embryos; 20 μM): 100% | Kd [2]: 5.85 µM | toxicity to K7M2, K12 and HUVEC cells [3]: not toxic
